The values below come from patent publication US20260109699A1, “AZOLE DERIVATIVES AS SHP2 INHIBITORS” (IRBM S.P.A., priority 2022, published 2026).

The IC50 is the point on the concentration scale where inhibition reaches its midpoint.

Experiment [1] deals with T1, SHP-2 enzyme (Met1-Leu525), SHP2wt (Homo sapiens, UniProt Q06124).
T1 construct: synthetized by Origene, Met1-Leu525, cat #TP750155; purchased Origene TP750155
T1 sequence (Q06124 1-525): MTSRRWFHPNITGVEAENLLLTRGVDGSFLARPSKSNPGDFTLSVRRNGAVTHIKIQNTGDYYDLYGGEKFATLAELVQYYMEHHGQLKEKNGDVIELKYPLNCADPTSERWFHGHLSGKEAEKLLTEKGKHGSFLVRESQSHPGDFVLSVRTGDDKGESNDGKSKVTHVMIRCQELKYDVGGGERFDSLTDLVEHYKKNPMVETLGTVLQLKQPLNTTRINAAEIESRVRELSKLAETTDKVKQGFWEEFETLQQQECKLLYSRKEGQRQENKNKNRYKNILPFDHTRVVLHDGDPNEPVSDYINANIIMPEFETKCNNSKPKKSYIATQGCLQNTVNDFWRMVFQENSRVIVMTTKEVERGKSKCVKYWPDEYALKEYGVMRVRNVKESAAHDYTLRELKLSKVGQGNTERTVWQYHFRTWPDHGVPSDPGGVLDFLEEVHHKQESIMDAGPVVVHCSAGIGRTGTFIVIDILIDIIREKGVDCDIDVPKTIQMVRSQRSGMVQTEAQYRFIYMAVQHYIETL
Kind of experiment: SHP2 inhibition enzymatic assay. The class given is biochemical. The conditions noted are these: 0.5 nM SHP-2 activated by 500 nM IRS1 peptide, 75 μM DiFMUP substrate. In short, it runs like this:
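Human SHP2 (Met1-Leu525, 0.5 nM) activated by 500 nM bis-phosphorylated IRS1 peptide, pre-incubated 30 min with compound, then 75 μM DiFMUP for 30 min at rt in HEPES pH 7.2, NaCl/KCl, EDTA, Tween-20, 5 mM DTT. Reaction quenched with bpV, fluorescence read; IC50 by four-parameter logistic fit.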

In experiment [2] the test system is phospho-ERK1/2 (Thr202/Tyr204). The experiment can be described thus: Phospho-ERK cellular assay. The settings on record: Homo sapiens; KYSE-520 cells, 2 h at 37° C, TR-FRET; read-out: pERK IC50. Type of experiment: cell-based. In short, it runs like this:
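KYSE-520 cells treated overnight-after-plating with serially diluted compounds for 2 h at 37° C, then lysed. Phospho-ERK1/2 measured by TR-FRET after overnight antibody incubation at rt; inhibition normalized between DMSO (0%) and no-cell (100%) wells, IC50 from four-parameter logistic fit.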

Structures are written as SMILES.

`Cc1nc(N2CCC3(CC2)Cn2nccc2[C@H]3N)cnc1Sc1cccc(Cl)c1Cl` [Example 6, (S)-1-(5-((2,3-dichlorophenyl)thio)-6-methylpyrazin-2-yl)-4′H,6′H-spiro[piperidine-4,5′-pyrrolo[1,2-b]pyrazol]-4′-amine]: the 50% inhibitory concentration (IC50) in experiment [1] was not above 50 nM; in experiment [2] it was 100 to 500 nM.

For `N[C@@H]1c2ccnn2CC12CCN(c1cnc(Sc3cccc(-n4ccnc4C(F)F)c3Cl)cn1)CC2` [Example 82, (S)-1-(5-((2-chloro-3-(2-(difluoromethyl)-1H-imidazol-1-yl)phenyl)thio)pyrazin-2-yl)-4′H,6′H-spiro[piperidine-4,5′-pyrrolo[1,2-b]pyrazol]-4′-amine], the IC50 in experiment [1] is not above 50 nM; in experiment [2] it was less than 100 nM.

For `N[C@@H]1c2c(F)ccn2CC12CCN(c1cnc(Sc3cccc(Cl)c3Cl)cn1)CC2` [Example 29, (S)-1-(5-((2,3-dichlorophenyl)thio)pyrazin-2-yl)-7′-fluoro-1′H,3′H-spiro[piperidine-4,2′-pyrrolizin]-1′-amine], the results for the IC50 in experiment [1] and in experiment [2] were not above 50 nM and less than 100 nM, respectively.

With `N[C@@H]1c2ccnn2CC12CCN(c1cnc(Sc3ccc(F)cc3)cn1)CC2` [Example 13, (S)-1-(5-((4-fluorophenyl)thio)pyrazin-2-yl)-4′H,6′H-spiro[piperidine-4,5′-pyrrolo[1,2-b]pyrazol]-4′-amine], the IC50 is not above 50 nM in experiment [1] and less than 100 nM in experiment [2].

As to `N#Cc1ccc(Sc2cnc(N3CCC4(CC3)Cn3nccc3[C@H]4N)cn2)c2cccnc12` [Example 66, (S)-5-((5-(4′-amino-4′H,6′H-spiro[piperidine-4,5′-pyrrolo[1,2-b]pyrazol]-1-yl)pyrazin-2-yl)thio)quinoline-8-carbonitrile], the results for the IC50 in experiment [1] and in experiment [2] were not above 50 nM and less than 100 nM, respectively.

Turning to `N[C@@H]1c2ccnn2CC12CCN(c1cnc(Oc3ccc(Cl)cc3F)cn1)CC2` [Example 79, (S)-1-(5-(4-chloro-2-fluorophenoxy)pyrazin-2-yl)-4′H,6′H-spiro[piperidine-4,5′-pyrrolo[1,2-b]pyrazol]-4′-amine], the half-inhibitory concentration (IC50) in experiment [1] is not above 50 nM; in experiment [2], 100 to 500 nM.

As for `Cc1c(Cl)cccc1-c1ncc2c(N3CCC4(CC3)Cn3nccc3[C@H]4N)nccn12` [Example 15, (S)-1-(3-(3-chloro-2-methylphenyl)imidazo[1,5-a]pyrazin-8-yl)-4′H,6′H-spiro[piperidine-4,5′-pyrrolo[1,2-b]pyrazol]-4′-amine], the concentration for half-maximal inhibition (IC50) in experiment [1] was not above 50 nM; in experiment [2] it was more than 500 nM.

Take `N[C@@H]1c2ccnn2CC12CCN(c1cnc(Sc3cccc(F)c3)cn1)CC2` [Example 51, (S)-1-(5-((3-fluorophenyl)thio)pyrazin-2-yl)-4′H,6′H-spiro[piperidine-4,5′-pyrrolo[1,2-b]pyrazol]-4′-amine]: the IC50 was not above 50 nM in experiment [1] and 100 to 500 nM in experiment [2].

Turning to `Cc1nc(N2CCC3(CC2)Cn2ncc(F)c2[C@H]3N)cc(=O)n1-c1cccc(Cl)c1Cl` (atropisomer, axis not shown) [Example 1, (S)-6-(4′-amino-3′-fluoro-4′H,6′H-spiro[piperidine-4,5′-pyrrolo[1,2-b]pyrazol]-1-yl)-3-(2,3-dichlorophenyl)-2-methylpyrimidin-4(3H)-one], the IC50 in experiment [1] is not above 50 nM; in experiment [2] it was 100 to 500 nM.

Regarding `N[C@@H]1c2ccnn2CC12CCN(c1cnc(Sc3cccc(Cl)c3C(F)(F)F)cn1)CC2` [Example 56, (S)-1-(5-((3-chloro-2-(trifluoromethyl)phenyl)thio)pyrazin-2-yl)-4′H,6′H-spiro[piperidine-4,5′-pyrrolo[1,2-b]pyrazol]-4′-amine], the IC50 in experiment [1] was not above 50 nM; in experiment [2], less than 100 nM.

`N[C@@H]1c2ccnn2CC12CCN(c1cnc(Sc3ccncc3)cn1)CC2` [Example 25, (S)-1-(5-(pyridin-4-ylthio)pyrazin-2-yl)-4′H,6′H-spiro[piperidine-4,5′-pyrrolo[1,2-b]pyrazol]-4′-amine]: the results for the IC50 in experiment [1] and in experiment [2] were not above 50 nM and less than 100 nM, respectively.

Consider `Cc1c(Cl)cncc1Sc1cnc(N2CCC3(CC2)Cn2nccc2[C@H]3N)cn1` [Example 62, (S)-1-(5-((5-chloro-4-methylpyridin-3-yl)thio)pyrazin-2-yl)-4′H,6′H-spiro[piperidine-4,5′-pyrrolo[1,2-b]pyrazol]-4′-amine], for which the 50% inhibitory concentration (IC50) in experiment [1] was not above 50 nM; in experiment [2], 100 to 500 nM.

As for `Cc1cccc(Sc2cnc(N3CCC4(CC3)Cn3nccc3[C@H]4N)cn2)c1C` [Example 47, (S)-1-(5-((2,3-dimethylphenyl)thio)pyrazin-2-yl)-4′H,6′H-spiro[piperidine-4,5′-pyrrolo[1,2-b]pyrazol]-4′-amine], the IC50 was not above 50 nM in experiment [1] and less than 100 nM in experiment [2].

On to `CC(C)c1ccccc1Sc1cnc(N2CCC3(CC2)Cn2nccc2[C@H]3N)cn1` [Example 27, (S)-1-(5-((2-isopropylphenyl)thio)pyrazin-2-yl)-4′H,6′H-spiro[piperidine-4,5′-pyrrolo[1,2-b]pyrazol]-4′-amine], for which the results for the IC50 in experiment [1] and in experiment [2] were not above 50 nM and less than 100 nM, respectively.

`N[C@@H]1c2ccnn2CC12CCN(c1cnc(Sc3ccc4c(c3)CCO4)cn1)CC2` [Example 42, (S)-1-(5-((2,3-dihydrobenzofuran-5-yl)thio)pyrazin-2-yl)-4′H,6′H-spiro[piperidine-4,5′-pyrrolo[1,2-b]pyrazol]-4′-amine]: the IC50 in experiment [1] is not above 50 nM; in experiment [2], less than 100 nM.

As to `COc1c(F)ccc(Sc2cnc(N3CCC4(CC3)Cn3nccc3[C@H]4N)cn2)c1F` [Example 55, (S)-1-(5-((2,4-difluoro-3-methoxyphenyl)thio)pyrazin-2-yl)-4′H,6′H-spiro[piperidine-4,5′-pyrrolo[1,2-b]pyrazol]-4′-amine], the IC50 in experiment [1] is not above 50 nM; in experiment [2], less than 100 nM.

For `N[C@@H]1c2ccnn2CC12CCN(c1cnc(Sc3ccccc3)cn1)CC2` [Example 24, (S)-1-(5-(phenylthio)pyrazin-2-yl)-4′H,6′H-spiro[piperidine-4,5′-pyrrolo[1,2-b]pyrazol]-4′-amine], the figures for the IC50 in experiment [1] and in experiment [2] were not above 50 nM and less than 100 nM, respectively.

With `N[C@@H]1c2ccnn2CC12CCN(c1cnc(Sc3cccc(F)c3Cl)cn1)CC2` [Example 30, (S)-1-(5-((2-chloro-3-fluorophenyl)thio)pyrazin-2-yl)-4′H,6′H-spiro[piperidine-4,5′-pyrrolo[1,2-b]pyrazol]-4′-amine], the IC50 in experiment [1] was not above 50 nM; in experiment [2] it was less than 100 nM.

Turning to `Cc1cccc(-c2ncc3c(N4CCC5(CC4)Cn4nccc4[C@H]5N)nccn23)c1F` [Example 12, (S)-1-(3-(2-fluoro-3-methylphenyl)imidazo[1,5-a]pyrazin-8-yl)-4′H,6′H-spiro[piperidine-4,5′-pyrrolo[1,2-b]pyrazol]-4′-amine], the IC50 in experiment [1] is not above 50 nM; in experiment [2], 100 to 500 nM.

Regarding `N[C@@H]1c2ccnn2CC12CCN(c1cnc3nc(-c4cccc(F)c4F)ccc3n1)CC2` [Example 8, (S)-1-(6-(2,3-difluorophenyl)pyrido[2,3-b]pyrazin-2-yl)-4′H,6′H-spiro[piperidine-4,5′-pyrrolo[1,2-b]pyrazol]-4′-amine], the IC50 was not above 50 nM in experiment [1] and more than 500 nM in experiment [2].
